Source: publication PMC5218480 (PLoS ONE, 2017)

Tested on: MV-4-11 cells
Experiment: Gene expression microarray analysis (Affymetrix PrimeView) and GSEA
Format: cell-based, human
Parameters: RFU PODN (11730768_x_at) / Fold change /veh PODN (11730768_x_at) / RFU LINC00158 (11744669_a_at) / Fold change /veh LINC00158 (11744669_a_at) / RFU DUSP10 (11751237_a_at) / Fold change /veh DUSP10 (11751237_a_at) / RFU ID3 (11757404_x_at) / Fold change /veh ID3 (11757404_x_at) / RFU PLEKHG5 (11737974_s_at) / Fold change /veh PLEKHG5 (11737974_s_at) / RFU LRRC4B (11730491_at) / Fold change /veh LRRC4B (11730491_at) / RFU GIMAP4 (11747438_a_at) / Fold change /veh GIMAP4 (11747438_a_at) / RFU KRT8 (11758183_x_at) / Fold change /veh KRT8 (11758183_x_at) / RFU CNN1 (11734310_a_at) / Fold change /veh CNN1 (11734310_a_at) / RFU VPS37D (11726825_at) / Fold change /veh VPS37D (11726825_at) / RFU C10orf10 (11716522_x_at) / Fold change /veh C10orf10 (11716522_x_at) / RFU KIR2DL2 /// KIR2DL4 /// KIR2DL5A /// KIR2DL5B /// KIR2DS1 /// KIR2DS2 /// KIR2DS3 /// KIR2DS4 /// KIR3DL3 /// KIR3DL3 /// KIR3DS1 (11738374_at) / Fold change /veh KIR2DL2 /// KIR2DL4 /// KIR2DL5A /// KIR2DL5B /// KIR2DS1 /// KIR2DS2 /// KIR2DS3 /// KIR2DS4 /// KIR3DL3 /// KIR3DL3 /// KIR3DS1 (11738374_at) / RFU C1QL1 (11718748_at) / Fold change /veh C1QL1 (11718748_at) / RFU TMPRSS4 (11747572_a_at) / Fold change /veh TMPRSS4 (11747572_a_at) / RFU HAMP (11756126_x_at) / Fold change /veh HAMP (11756126_x_at) / RFU RNFT2 (11725882_a_at) / Fold change /veh RNFT2 (11725882_a_at) / RFU NR4A2 (11747474_a_at) / Fold change /veh NR4A2 (11747474_a_at) / RFU ABCC12 (11746883_a_at) / Fold change /veh ABCC12 (11746883_a_at) / RFU TMEM136 (11760407_x_at) / Fold change /veh TMEM136 (11760407_x_at) / RFU CLDN22 /// WWC2 (11732394_at) / Fold change /veh CLDN22 /// WWC2 (11732394_at) / RFU HLA-DPB1 (11760878_x_at) / Fold change /veh HLA-DPB1 (11760878_x_at) / RFU SPINT1 (11716480_a_at) / Fold change /veh SPINT1 (11716480_a_at) / RFU GAP43 (11754022_s_at) / Fold change /veh GAP43 (11754022_s_at) / RFU A4GNT (11735810_at) / Fold change /veh A4GNT (11735810_at) / RFU PRB3 (11715151_x_at) / Fold change /veh PRB3 (11715151_x_at) / RFU TUBB4B (11761932_at) / Fold change /veh TUBB4B (11761932_at) / RFU CAPN14 (11732068_a_at) / Fold change /veh CAPN14 (11732068_a_at) / RFU TMCC2 (11721928_a_at) / Fold change /veh TMCC2 (11721928_a_at) / RFU IRGQ (11745062_a_at) / Fold change /veh IRGQ (11745062_a_at) / RFU FAM174B (11720279_a_at) / Fold change /veh FAM174B (11720279_a_at) / RFU TMPRSS4 (11748680_a_at) / Fold change /veh TMPRSS4 (11748680_a_at) / RFU FAM212B (11763350_a_at) / Fold change /veh FAM212B (11763350_a_at) / RFU PLEKHG5 (11743358_a_at) / Fold change /veh PLEKHG5 (11743358_a_at) / RFU ZSCAN30 (11745921_a_at) / Fold change /veh ZSCAN30 (11745921_a_at) / RFU CMKLR1 (11741424_a_at) / Fold change /veh CMKLR1 (11741424_a_at) / RFU LOC101060620 /// MAPK8IP1 (11723275_at) / Fold change /veh LOC101060620 /// MAPK8IP1 (11723275_at) / RFU SPTSSB (11747773_x_at) / Fold change /veh SPTSSB (11747773_x_at) / RFU PRSS12 (11739890_at) / Fold change /veh PRSS12 (11739890_at) / RFU BIN1 (11741810_x_at) / Fold change /veh BIN1 (11741810_x_at) / RFU WNT11 (11732464_a_at) / Fold change /veh WNT11 (11732464_a_at) / RFU C10orf10 (11716521_a_at) / Fold change /veh C10orf10 (11716521_a_at) / RFU C5orf56 (11738089_at) / Fold change /veh C5orf56 (11738089_at) / RFU CYB561 (11721691_x_at) / Fold change /veh CYB561 (11721691_x_at) / RFU ANKRD19P (11752326_a_at) / Fold change /veh ANKRD19P (11752326_a_at) / RFU OR2T12 /// OR2T33 /// OR2T8 (11738714_s_at) / Fold change /veh OR2T12 /// OR2T33 /// OR2T8 (11738714_s_at) / RFU VCAN (11748164_a_at) / Fold change /veh VCAN (11748164_a_at) / RFU JSRP1 (11732532_at) / Fold change /veh JSRP1 (11732532_at) / RFU KRTAP10-11 (11738290_x_at) / Fold change /veh KRTAP10-11 (11738290_x_at) / RFU MYO3A (11730013_a_at) / Fold change /veh MYO3A (11730013_a_at) / RFU EBF3 (11725865_a_at) / Fold change /veh EBF3 (11725865_a_at) / RFU CAMK2N1 (11719241_x_at) / Fold change /veh CAMK2N1 (11719241_x_at) / RFU C5orf56 (11738088_a_at) / Fold change /veh C5orf56 (11738088_a_at) / RFU OLFML3 (11715873_a_at) / Fold change /veh OLFML3 (11715873_a_at) / RFU LOC100653217 /// NTM (11731650_a_at) / Fold change /veh LOC100653217 /// NTM (11731650_a_at) / RFU MAPK11 (11762145_a_at) / Fold change /veh MAPK11 (11762145_a_at) / RFU FIZ1 (11724087_x_at) / Fold change /veh FIZ1 (11724087_x_at) / RFU OASL (11726364_x_at) / Fold change /veh OASL (11726364_x_at) / RFU SOX15 (11748057_x_at) / Fold change /veh SOX15 (11748057_x_at) / RFU CD79A (11719716_a_at) / Fold change /veh CD79A (11719716_a_at) / RFU HIST1H1D (11736915_at) / Fold change /veh HIST1H1D (11736915_at) / RFU CASKIN2 (11723855_a_at) / Fold change /veh CASKIN2 (11723855_a_at) / RFU LOC730098 (11760151_x_at) / Fold change /veh LOC730098 (11760151_x_at) / RFU OR4N2 (11742367_at) / Fold change /veh OR4N2 (11742367_at) / RFU PRRT2 (11749266_a_at) / Fold change /veh PRRT2 (11749266_a_at) / RFU SNX32 (11753110_a_at) / Fold change /veh SNX32 (11753110_a_at) / RFU CDHR5 (11726645_a_at) / Fold change /veh CDHR5 (11726645_a_at) / RFU RCAN1 (11760418_a_at) / Fold change /veh RCAN1 (11760418_a_at) / RFU FAM167A (11723789_a_at) / Fold change /veh FAM167A (11723789_a_at) / RFU FAM26E (11764081_at) / Fold change /veh FAM26E (11764081_at) / RFU ISYNA1 (11749810_s_at) / Fold change /veh ISYNA1 (11749810_s_at) / RFU ACY1 (11761880_at) / Fold change /veh ACY1 (11761880_at) / RFU 11764098_at / Fold change /veh 11764098_at / RFU SAMD14 (11745864_x_at) / Fold change /veh SAMD14 (11745864_x_at) / RFU NPB (11741838_a_at) / Fold change /veh NPB (11741838_a_at) / RFU TMPRSS6 (11731388_a_at) / Fold change /veh TMPRSS6 (11731388_a_at) / RFU KRTAP10-2 (11738614_at) / Fold change /veh KRTAP10-2 (11738614_at) / RFU ARHGAP8 /// PRR5-ARHGAP8 (11727945_x_at) / Fold change /veh ARHGAP8 /// PRR5-ARHGAP8 (11727945_x_at) / RFU KRTAP5-7 /// NADSYN1 (11734609_at) / Fold change /veh KRTAP5-7 /// NADSYN1 (11734609_at) / RFU RASL12 (11751679_a_at) / Fold change /veh RASL12 (11751679_a_at) / RFU CDKN2B (11736163_a_at) / Fold change /veh CDKN2B (11736163_a_at) / RFU PRF1 (11729649_at) / Fold change /veh PRF1 (11729649_at) / RFU, ZNF638 /// ZNF638-IT1 / Fold change vs veh, ZNF638 /// ZNF638-IT1 / RFU, PANK3 / Fold change vs veh, PANK3 / RFU, SH3YL1 / Fold change vs veh, SH3YL1 / RFU, ZEB2 / Fold change vs veh, ZEB2 / RFU, NRIP1 / Fold change vs veh, NRIP1 / RFU, PTTG1IP / Fold change vs veh, PTTG1IP / RFU, CAPN2 / Fold change vs veh, CAPN2 / RFU, MED14 / Fold change vs veh, MED14 / RFU, SNORA58 / Fold change vs veh, SNORA58 / RFU, C1orf63 / Fold change vs veh, C1orf63 / RFU, LRRFIP1 / Fold change vs veh, LRRFIP1 / RFU, NDUFAF7 / Fold change vs veh, NDUFAF7 / RFU, SLC12A2 / Fold change vs veh, SLC12A2 / RFU, IBTK / Fold change vs veh, IBTK / RFU, ESF1 / Fold change vs veh, ESF1 / Fold change vs veh, TMEM50B / RFU, TAOK1 / Fold change vs veh, TAOK1 / RFU, ACBD3 / Fold change vs veh, ACBD3 / RFU, TMA16 / Fold change vs veh, TMA16 / RFU, RWDD3 / Fold change vs veh, RWDD3 / RFU, BCAT1 / Fold change vs veh, BCAT1 / RFU, EDEM3 / Fold change vs veh, EDEM3 / RFU, TMEM33 / Fold change vs veh, TMEM33 / RFU, WDR75 / Fold change vs veh, WDR75 / RFU, AHCTF1 / Fold change vs veh, AHCTF1 / RFU, TFRC / Fold change vs veh, TFRC / RFU, ZDHHC17 / Fold change vs veh, ZDHHC17 / RFU, NOM1 / Fold change vs veh, NOM1 / RFU, ARL8B / Fold change vs veh, ARL8B / RFU, ZBTB11 / Fold change vs veh, ZBTB11 / RFU, TAMM41 / Fold change vs veh, TAMM41 / RFU, KIAA1704 /// LOC100996395 / Fold change vs veh, KIAA1704 /// LOC100996395 / RFU, ING1 / Fold change vs veh, ING1 / RFU, TRMT61B / Fold change vs veh, TRMT61B / RFU, FUBP3 / Fold change vs veh, FUBP3 / RFU, TP53 / Fold change vs veh, TP53 / RFU, TNKS2 / Fold change vs veh, TNKS2 / RFU, ZFP14 / Fold change vs veh, ZFP14 / RFU, ACTR2 / Fold change vs veh, ACTR2 / RFU, PPP3R1 / Fold change vs veh, PPP3R1 / RFU, PIK3R1 / Fold change vs veh, PIK3R1 / RFU, HNRNPA1 / Fold change vs veh, HNRNPA1 / RFU, RNF170 / Fold change vs veh, RNF170 / RFU, ZNF28 / Fold change vs veh, ZNF28 / RFU, RNGTT / Fold change vs veh, RNGTT / RFU, OGT / Fold change vs veh, OGT / RFU, BRD1 / Fold change vs veh, BRD1 / RFU, MARS / Fold change vs veh, MARS / RFU, ZNF655 / Fold change vs veh, ZNF655 / RFU, FAHD1 / Fold change vs veh, FAHD1 / RFU, BDP1 / Fold change vs veh, BDP1 / RFU, LRRCC1 / Fold change vs veh, LRRCC1 / RFU, ARID1A / Fold change vs veh, ARID1A / RFU, ZNF146 / Fold change vs veh, ZNF146 / RFU, ZNF330 / Fold change vs veh, ZNF330 / RFU, GPN3 / Fold change vs veh, GPN3 / RFU, C9orf123 / Fold change vs veh, C9orf123 / RFU, N4BP2L2 / Fold change vs veh, N4BP2L2 / RFU, ARFIP1 / Fold change vs veh, ARFIP1 / RFU, FAM179B / Fold change vs veh, FAM179B / RFU, BCL10 / Fold change vs veh, BCL10 / RFU, UHRF1BP1L / Fold change vs veh, UHRF1BP1L / RFU, BET1 / Fold change vs veh, BET1 / RFU, CNOT2 / Fold change vs veh, CNOT2 / RFU, ZNF268 / Fold change vs veh, ZNF268 / Fold change vs veh, ZNF507 / RFU, DGCR2 / Fold change vs veh, DGCR2 / RFU, WDSUB1 / Fold change vs veh, WDSUB1 / Fold change vs veh, HSP90B1 /// MIR3652 / RFU, ADSS / Fold change vs veh, ADSS / RFU, GK / Fold change vs veh, GK / RFU, ZNF148 / Fold change vs veh, ZNF148 / RFU, TAF9 / Fold change vs veh, TAF9 / RFU, SLC1A5 / Fold change vs veh, SLC1A5 / RFU, SLMO2 / Fold change vs veh, SLMO2 / RFU, ABCC4 / Fold change vs veh, ABCC4 / RFU, LOC101060439 /// RAP1B / Fold change vs veh, LOC101060439 /// RAP1B / RFU, RFX7 / Fold change vs veh, RFX7 / RFU, GTPBP10 / Fold change vs veh, GTPBP10 / RFU, CNEP1R1 / Fold change vs veh, CNEP1R1 / RFU, BIVM-ERCC5 /// ERCC5 / Fold change vs veh, BIVM-ERCC5 /// ERCC5 / RFU, ILF3 / Fold change vs veh, ILF3 / RFU 11762660_at / Fold change /veh 11762660_at / RFU VCAN (11757783_s_at) / Fold change /veh VCAN (11757783_s_at) / RFU DDX43 (11728927_at) / Fold change /veh DDX43 (11728927_at) / RFU KRT8 (11758188_x_at) / Fold change /veh KRT8 (11758188_x_at) / RFU NKD1 (11759106_at) / Fold change /veh NKD1 (11759106_at) / RFU SRD5A1 (11742802_a_at) / Fold change /veh SRD5A1 (11742802_a_at) / RFU TPSAB1 /// TPSB2 (11721975_s_at) / Fold change /veh TPSAB1 /// TPSB2 (11721975_s_at) / RFU GSTM3 (11746129_a_at) / Fold change /veh GSTM3 (11746129_a_at) / RFU IL23R (11737362_x_at) / Fold change /veh IL23R (11737362_x_at) / RFU TMEM51 (11727254_a_at) / Fold change /veh TMEM51 (11727254_a_at) / RFU PIWIL2 (11732686_x_at) / Fold change /veh PIWIL2 (11732686_x_at) / RFU ORM1 (11744905_x_at) / Fold change /veh ORM1 (11744905_x_at) / RFU CCDC152 (11743942_at) / Fold change /veh CCDC152 (11743942_at) / RFU ECM1 (11717891_a_at) / Fold change /veh ECM1 (11717891_a_at) / RFU IL23R (11748794_a_at) / Fold change /veh IL23R (11748794_a_at) / RFU TNFAIP8L3 (11732012_x_at) / Fold change /veh TNFAIP8L3 (11732012_x_at) / RFU MBOAT4 (11741988_at) / Fold change /veh MBOAT4 (11741988_at) / RFU 11764193_at / Fold change /veh 11764193_at / RFU TMEM53 (11763286_at) / Fold change /veh TMEM53 (11763286_at) / RFU MAGEB2 (11727129_at) / Fold change /veh MAGEB2 (11727129_at) / RFU TMEM200A (11744735_a_at) / Fold change /veh TMEM200A (11744735_a_at) / RFU CCDC152 (11751479_a_at) / Fold change /veh CCDC152 (11751479_a_at) / RFU FAM211A (11726209_a_at) / Fold change /veh FAM211A (11726209_a_at) / RFU RGS16 (11746705_a_at) / Fold change /veh RGS16 (11746705_a_at) / RFU VCAN (11755009_s_at) / Fold change /veh VCAN (11755009_s_at) / RFU RHOB (11743442_s_at) / Fold change /veh RHOB (11743442_s_at) / RFU RGS16 (11720943_a_at) / Fold change /veh RGS16 (11720943_a_at) / RFU RGS16 (11720944_at) / Fold change /veh RGS16 (11720944_at) / RFU, VPS4B / Fold change vs veh, VPS4B / RFU, CREB1 / Fold change vs veh, CREB1 / RFU, DNAJC13 / Fold change vs veh, DNAJC13 / RFU, GNAQ / Fold change vs veh, GNAQ / RFU, CDK5R1 / Fold change vs veh, CDK5R1 / RFU, ZRANB3 / Fold change vs veh, ZRANB3 / RFU, CUL4A / Fold change vs veh, CUL4A / RFU, CCNY / Fold change vs veh, CCNY / RFU, UFL1 / Fold change vs veh, UFL1 / RFU, COG3 / Fold change vs veh, COG3 / RFU, DIAPH2 / Fold change vs veh, DIAPH2 / RFU, SKA2 / Fold change vs veh, SKA2 / RFU, AFF3 / Fold change vs veh, AFF3 / RFU, LMF1 / Fold change vs veh, LMF1 / RFU, IPO11 / Fold change vs veh, IPO11 / RFU, DFFB / Fold change vs veh, DFFB / RFU, FOXP1 / Fold change vs veh, FOXP1 / RFU, CARD8 / Fold change vs veh, CARD8 / RFU, STRN3 / Fold change vs veh, STRN3 / RFU, ADK / Fold change vs veh, ADK / RFU, RASSF2 / Fold change vs veh, RASSF2 / RFU, WIPF1 / Fold change vs veh, WIPF1 / RFU, LARP1B / Fold change vs veh, LARP1B / RFU, RASA1 / Fold change vs veh, RASA1 / RFU, RB1 / Fold change vs veh, RB1 / RFU, PPFIA1 / Fold change vs veh, PPFIA1 / RFU, MAT2A / Fold change vs veh, MAT2A / RFU, CCT5 / Fold change vs veh, CCT5 / RFU, WDR92 / Fold change vs veh, WDR92 / RFU, CUX1 / Fold change vs veh, CUX1 / RFU, TTC7A / Fold change vs veh, TTC7A / RFU, TMEM135 / Fold change vs veh, TMEM135 / RFU, DEPTOR / Fold change vs veh, DEPTOR / RFU, CPM / Fold change vs veh, CPM / RFU, DNAJB6 / Fold change vs veh, DNAJB6 / RFU, CACNA2D3 / Fold change vs veh, CACNA2D3 / RFU, DTX4 / Fold change vs veh, DTX4 / RFU, TFCP2 / Fold change vs veh, TFCP2 / RFU, GMCL1 /// GMCL1P1 / Fold change vs veh, GMCL1 /// GMCL1P1 / RFU, AEBP2 / Fold change vs veh, AEBP2 / RFU, SNHG1 /// SNORD22 /// SNORD25 /// SNORD26 /// SNORD27 /// SNORD28 /// SNORD29 /// SNORD31 / Fold change vs veh, SNHG1 /// SNORD22 /// SNORD25 /// SNORD26 /// SNORD27 /// SNORD28 /// SNORD29 /// SNORD31 / Fold change (Aza/veh), C12orf56 (ProbeSet 11735607_a_at) / Fold change (ACY-1035/veh), C12orf56 (ProbeSet 11735607_a_at) / Fold change (Aza/veh), FGFR1OP (ProbeSet 11751329_s_at) / Fold change (ACY-1035/veh), FGFR1OP (ProbeSet 11751329_s_at) / Fold change (Aza/veh), VPS36 (ProbeSet 11739960_a_at) / Fold change (ACY-1035/veh), VPS36 (ProbeSet 11739960_a_at) / RFU SYPL1 (11715823_x_at) / Fold change /veh SYPL1 (11715823_x_at) / RFU IGFBP7 (11715501_s_at) / Fold change /veh IGFBP7 (11715501_s_at) / RFU REEP3 (11722064_at) / Fold change /veh REEP3 (11722064_at) / RFU IGLL1 (11728026_x_at) / Fold change /veh IGLL1 (11728026_x_at): dose or concentration left out as unconfirmed
Conditions: MV-4-11 cells, 48 hours

With `Nc1ccc(-c2cccs2)cc1NC(=O)c1ccc2c(c1)cc(C1CC1)n2CCN1CCOCC1` [ACY-1035] the “Fold change /veh GSTM3 (11746129_a_at)” value was 0.96.
